# Test results taken from PubChem BioAssay AID1963839 (Molecular Pharmacology Branch, DTP, NCI, 2024).
# System: 817829-284-R-J1-PDC complex spheroid viability
# Assay: Anticancer human tumor 817829-284-R-J1-PDC patient-derived colon adenocarcinoma cell line growth inhibition [POLQ]
# Conditions: for IC50: curve of first compound; for viability, T/C: stronger effect = lower value
# Method in brief: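 PDC + HUVEC + MSC complex spheroids; POLQ inhibitors ± partner drugs; top conc. at/near clinical Cmax, else 10 microM (SN-38 1 microM), half-log dilutions; 37 degrees C, 5% CO2.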
# [1] = second compound 0.0316 µM, first compound 0.0316 µM
# [2] = second compound 0.0316 µM, first compound 0.1 µM
# [3] = second compound 0.0316 µM, first compound 0.316 µM
# [4] = second compound 0.0316 µM, first compound 1 µM
# [5] = second compound 0.0316 µM, first compound 3.16 µM
# [6] = second compound 0.0316 µM, first compound 10 µM
# [7] = second compound 0.1 µM, first compound 0.0316 µM
# [8] = second compound 0.1 µM, first compound 0.1 µM
# [9] = second compound 0.1 µM, first compound 0.316 µM
# [10] = second compound 0.1 µM, first compound 1 µM
# [11] = second compound 0.1 µM, first compound 3.16 µM
# [12] = second compound 0.1 µM, first compound 10 µM
# [13] = second compound 0.316 µM, first compound 0.0316 µM
# [14] = second compound 0.316 µM, first compound 0.1 µM
# [15] = second compound 0.316 µM, first compound 0.316 µM
# [16] = second compound 0.316 µM, first compound 1 µM
# [17] = second compound 0.316 µM, first compound 3.16 µM
# [18] = second compound 0.316 µM, first compound 10 µM
# [19] = second compound 1 µM, first compound 0.0316 µM
# [20] = second compound 1 µM, first compound 0.1 µM
# [21] = second compound 1 µM, first compound 0.316 µM
# [22] = second compound 1 µM, first compound 1 µM
# [23] = second compound 1 µM, first compound 3.16 µM
# [24] = second compound 1 µM, first compound 10 µM
# [25] = second compound 3.16 µM, first compound 0.0316 µM
# [26] = second compound 3.16 µM, first compound 0.1 µM
# [27] = second compound 3.16 µM, first compound 0.316 µM
# [28] = second compound 3.16 µM, first compound 1 µM
# [29] = second compound 3.16 µM, first compound 3.16 µM
# [30] = second compound 3.16 µM, first compound 10 µM
# [31] = second compound 10 µM, first compound 0.0316 µM
# [32] = second compound 10 µM, first compound 0.1 µM
# [33] = second compound 10 µM, first compound 0.316 µM
# [34] = second compound 10 µM, first compound 1 µM
# [35] = second compound 10 µM, first compound 3.16 µM
# [36] = second compound 10 µM, first compound 10 µM
# 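Note: spheroids exposed to compounds for 7 days.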
# 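Throughout, for viability, T/C: 100% = DMSO vehicle-treated spheroids.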
structure (smiles),measurement,setting,value
Nc1ccn(C2OC(CO)C(O)C2(F)F)c(=O)n1 (centres undefined) + Cc1cccc(N(C)C(=O)C2C(O)CCN2c2nc(C)cc(C(F)(F)F)c2C#N)c1,IC50,second compound 0.0316 µM,< 31.6 nM
same,IC50,second compound 0.1 µM,< 31.6 nM
same,IC50,second compound 0.316 µM,< 31.6 nM
same,IC50,second compound 1 µM,< 31.6 nM
same,IC50,second compound 3.16 µM,< 31.6 nM
same,IC50,second compound 10 µM,< 31.6 nM
same,"viability, T/C",[1],4.93%
same,"viability, T/C",[2],6.34%
same,"viability, T/C",[3],5.78%
same,"viability, T/C",[4],4.47%
same,"viability, T/C",[5],4.13%
same,"viability, T/C",[6],3%
same,"viability, T/C",[7],5.1%
same,"viability, T/C",[8],4.91%
same,"viability, T/C",[9],5.63%
same,"viability, T/C",[10],4.62%
same,"viability, T/C",[11],3.58%
same,"viability, T/C",[12],2.89%
same,"viability, T/C",[13],6.1%
same,"viability, T/C",[14],5.35%
same,"viability, T/C",[15],5.35%
same,"viability, T/C",[16],5.17%
same,"viability, T/C",[17],4.11%
same,"viability, T/C",[18],2.77%
same,"viability, T/C",[19],4.92%
same,"viability, T/C",[20],5.99%
same,"viability, T/C",[21],4.9%
same,"viability, T/C",[22],4.77%
same,"viability, T/C",[23],3.54%
same,"viability, T/C",[24],2.95%
same,"viability, T/C",[25],5.03%
same,"viability, T/C",[26],5.55%
same,"viability, T/C",[27],6.02%
same,"viability, T/C",[28],4.31%
same,"viability, T/C",[29],4.69%
same,"viability, T/C",[30],3.24%
same,"viability, T/C",[31],6.79%
same,"viability, T/C",[32],5.07%
same,"viability, T/C",[33],5.13%
same,"viability, T/C",[34],4.16%
same,"viability, T/C",[35],4.17%
same,"viability, T/C",[36],2.99%
O=c1[nH]cc(F)c(=O)[nH]1 + Cc1cccc(N(C)C(=O)C2C(O)CCN2c2nc(C)cc(C(F)(F)F)c2C#N)c1,IC50,second compound 0.0316 µM,1980 nM
same,IC50,second compound 0.1 µM,3120 nM
same,IC50,second compound 0.316 µM,> 10000 nM
same,IC50,second compound 1 µM,3100 nM
same,IC50,second compound 3.16 µM,3650 nM
same,IC50,second compound 10 µM,2530 nM
same,"viability, T/C",[1],98.2%
same,"viability, T/C",[2],119%
same,"viability, T/C",[3],68.2%
same,"viability, T/C",[4],72.5%
same,"viability, T/C",[5],34.8%
same,"viability, T/C",[6],38.9%
same,"viability, T/C",[7],91.4%
same,"viability, T/C",[8],126%
same,"viability, T/C",[9],110%
same,"viability, T/C",[10],75.4%
same,"viability, T/C",[11],55.9%
same,"viability, T/C",[12],42.1%
same,"viability, T/C",[13],92.1%
same,"viability, T/C",[14],98%
same,"viability, T/C",[15],106%
same,"viability, T/C",[16],74.4%
same,"viability, T/C",[17],55.4%
same,"viability, T/C",[18],45.8%
same,"viability, T/C",[19],72.5%
same,"viability, T/C",[20],118%
same,"viability, T/C",[21],98.8%
same,"viability, T/C",[22],75.1%
same,"viability, T/C",[23],52.7%
same,"viability, T/C",[24],39.9%
same,"viability, T/C",[25],89.9%
same,"viability, T/C",[26],112%
same,"viability, T/C",[27],102%
same,"viability, T/C",[28],77%
same,"viability, T/C",[29],54.7%
same,"viability, T/C",[30],36.3%
same,"viability, T/C",[31],101%
same,"viability, T/C",[32],91.8%
same,"viability, T/C",[33],94.1%
same,"viability, T/C",[34],60.4%
same,"viability, T/C",[35],52%
same,"viability, T/C",[36],42.6%
